Reference: PMC7767178 (International Journal of Molecular Sciences, 2020)
Several values for one entry are separate records, joined by “and”; a condition that tells them apart may be missing. Equal entries are not always repeated. Where two headings read alike, the source gives them in different places. Positions of bridges follow the written chain, without caps; N, C: chain ends. Residues, ends and D or L forms follow the SMILES beside them.

How the values were obtained:
[1] = system: Salmonella typhimurium ATCC14028; assay type: cell-based
[2] = system: A. veronii ACCC61732; assay: Organ injury in peritonitis model, histology; assay type: in vivo, mice; conditions: peptides 5 μmol/kg, CIP 1 μmol/kg
Method: Livers, kidneys, spleens, and lungs were removed from mice at 24 h and five days post treatment to evaluate the organ injury. After washing with PBS, the organs were fixed in 4% paraform-aldehyde for 24 h at 4 °C, dehydrated by a graded series of ethanol (75‒95%), and infiltrated with xylene. The organs were then embedded in paraffin wax, sectioned, and stained with hematoxylin and eosin. Finally, the tissue samples were fixed and observed by the light microscope. The CIP-treated mice served as the positive control and the PBS group served as the negative control.

[3] = system: A. veronii; assay: MIC, range over strains; assay type: cell-based; conditions: range over the strains of Table 2
Excerpt: (§1) All experiments were repeated three times.

[4] = system: Escherichia coli; assay: MIC, range over strains; assay type: cell-based; conditions: range over the strains of Table 2
Excerpt: as §1

[5] = system: Salmonella; conditions: range over the strains of Table 2
[6] = system: A. veronii ATCC35624; assay type: cell-based
[7] = system: A. veronii ACCC61732 mature biofilms; assay: Eradication of mature biofilms, crystal violet; assay type: cell-based; conditions: 16× MIC, 24 h on 24 h biofilm
Method: A. veronii ACCC61732 cells (1 × 10^8 CFU/mL) were cultured in TSB medium in the 96-well plates at 37 °C for 24 h.

[8] = system: A. veronii ACCC61732; assay: Outer membrane permeabilization, NPN assay; assay type: cell-based; conditions: NPN fluorescence, 1×–4× MIC
Method: The outer membrane permeabilization abilities of peptides were determined using the fluorescent NPN assay. Mid-log phase A. veronii ACCC61732 was collected by centrifugation, washed twice, and then suspended in N-2-hydroxyethylpiperazine-n-2-ethane sulfonic acid (HEPES) buffer (pH 7.4) to an OD600nm = 0.4. […] Fluorescence intensity was recorded until no further increase with a microplate reader (excitation/emission, 328/438 nm).

[9] = system: TNF-α; assay: Serum cytokine, ELISA, peritonitis model; assay type: in vivo; conditions: 5 μmol/kg, 24 h after treatment, range over mice
Method: (§2) Sera and organs (livers, kidneys, spleens, and lungs) were collected from the mice at 24 h post-treatment. The organs were homogenized in sterile PBS to evaluate bacterial translocation by colony counting. The levels of cytokines (TNF-α, IL-1β, IL-6, and IL-10) in sera were detected using the ELISA kits.

[10] = system: IL-6; assay: Serum cytokine, ELISA, peritonitis model; assay type: in vivo; conditions: 5 μmol/kg, 24 h after treatment, range over mice
Method: as §2

[11] = system: IL-10; assay: Serum cytokine, ELISA, peritonitis model; assay type: in vivo; conditions: 5 μmol/kg, 24 h after treatment, range over mice
Method: as §2

[12] = system: IL-1β; assay: Serum cytokine, ELISA, peritonitis model; assay type: in vivo; conditions: 5 μmol/kg, 24 h after treatment, range over mice
Method: as §2

[13] = system: A. veronii ACCC61732; assay: ATP release, BacTiter-Glo; assay type: cell-based; conditions: 8×, 16× and 32× MIC, 60 min, 37 °C, luminescence, n = 3
Method: The assay was performed for three biological replicates at 37 °C, with luminescence recorded using a Tecan Infinite M1000 Pro plate reader. The fold reduction of ATP was calculated as: Fold reduction ATP = 1 − (Ltreat − Lmedia/Lcontrol − Lmedia), where Ltreat is the luminescence of treated cells, Lmedia is the luminescence of MHB without cells, and Lcontrol is the luminescence of untreated cells. Resultant graphs show mean (n = 3) and SEM for each data point, prepared in Prism 7 [46].

[14] = system: A. veronii ACCC61732; assay: Inner membrane permeability, PI staining, flow cytometry; assay type: cell-based
Method: To analyze effects of peptides on the inner membrane, A. veronii ACCC61732 cells were cultured to mid-log phase at 37 °C in MHB medium, washed thrice with PBS, and resuspended in the PBS buffer to 1 × 10^8 CFU/mL. […] After fixation with PI, the samples were detected by a fluorescent inverted microscope and FACS Calibur Flow Cytometer (BD, San Jose, CA, USA), respectively. Cell Quest Pro software (BD, San Jose, CA, USA) was used for the data analysis.

[15] = system: S. aureus ATCC546
Method: (§3) Briefly, the tested strains including Gram-negative bacteria, Gram-positive bacteria, and fungi were cultured to the logarithmic growth phase, diluted to 10^5 CFU/mL, and added into 96-well plates (90 μL/well). Two-fold serial dilutions of peptides or antibiotics dissolved in PBS were added to each well (10 μL/well). […] All experiments were repeated three times.

[16] = system: A. veronii CL0901
Method: as §3

[17] = system: S. aureus ATCC25923
Method: as §3

[18] = system: Aeromonas veronii ACCC61732
Method: as §3

[19] = system: Pseudomonas aeruginosa CICC21630
Method: as §3

[20] = system: S. hyicus NCTC10350
Method: as §3

[21] = system: MDR A. veronii ACCC61732; assay: Mouse peritonitis model, survival; assay type: in vivo, ICR mice; conditions: 5 μmol/kg i.p. 0.5 h after infection, seven days, six mice
Method: […]. The mice injected with only bacteria or saline served as the negative and blank control. The mouse survival was recorded daily for seven days.

[22] = Salmonella typhimurium ATCC14028, broth dilution, 37 °C, 16–18 h, three experiments
[23] = A. veronii ATCC35624, broth dilution, 37 °C, 16–18 h, three experiments
[24] = S. aureus ATCC546, broth dilution, 37 °C, 16–18 h, three experiments
[25] = A. veronii CL0901, broth dilution, 37 °C, 16–18 h, three experiments
[26] = S. aureus ATCC25923, broth dilution, 37 °C, 16–18 h, three experiments
[27] = Aeromonas veronii ACCC61732 (MDR), broth dilution, 37 °C, 16–18 h, three experiments
[28] = Pseudomonas aeruginosa CICC21630, broth dilution, 37 °C, 16–18 h, three experiments
[29] = S. hyicus NCTC10350, broth dilution, 37 °C, 16–18 h, three experiments

Row | Structure (SMILES) | MIC ([1]; ATCC14028) [µM] | MIC [1, 22] [µg/mL] | effect on injury of liver, spleen, kidney and lung [2] | MIC values against A. veronii [3] [µM] | MIC values against Escherichia coli [4] [µM] | MIC values against Salmonella [5] [µM] | MIC [6, 23] [µg/mL] | MIC ([6]; ATCC35624) [µM] | ability to penetrate the outer membrane [8] | serum level of TNF-α [9] [pg/mL] | serum level of IL-6 [10] [pg/mL] | serum level of IL-10 [11] [pg/mL] | serum level of IL-1β [12] [pg/mL] | Permeability (PI-positive cells) ([14]; 1× MIC, 0.5 h) [%] | Permeability (PI-positive cells) ([14]; 1× MIC, 2 h) [%] | Permeability (PI-positive cells) ([14]; 2× MIC, 0.5 h) [%] | Permeability (PI-positive cells) ([14]; 2× MIC, 2 h) [%] | Permeability (PI-positive cells) ([14]; 4× MIC, 0.5 h) [%] | Permeability (PI-positive cells) ([14]; 4× MIC, 2 h) [%] | MIC ([15]; ATCC546) [µM] | other results
1 | CC(C)[C@H]1NC(=O)CNC(=O)[C@@H](CC(N)=O)NC(=O)[C@@H](CCCNC(=N)N)NC(=O)[C@@H](Cc2ccc(O)cc2)NC(=O)[C@@H](C(C)C)NC(=O)[C@H](NC(=O)[C@H](NC(=O)[C@@H](CC(N)=O)NC(=O)[C@@H](Cc2c[nH]c3ccccc23)NC(=O)[C@@H](C)NC(=O)[C@@H](Cc2ccccc2)NC(=O)CN)C(C)C)CSSC[C@H](C(=O)N[C@H](Cc2c[nH]cn2)C(=O)N[C@H](CCCNC(=N)N)C(=O)N[C@H](CCCNC(=N)N)C(=O)N[C@H](C)C(=O)N[C@H](CC(N)=O)C(N)=O)NC(=O)[C@@H](C(C)C)NC(=O)[C@@H](CCCNC(=N)N)NC1=O [DN6NH2] | 3.23 | 8 | remarkably alleviated the injury of the liver and spleen | 1.62 to 25.86 | 1.62 to 3.23 | 0.81 to 6.46 | 64 | 25.86 | higher ability to penetrate the outer membrane than N6NH2 | 40.02 to 66.20 | 104.48 to 115.43 | 15.94 to 25.46 | 8.17 to 25.94 | 0 | 3.42 | 9.16 | 9.83 | 41.93 | 33.73 | 6.46 | inhibition of mature biofilms [7]: 91.90%; ATP release [13]: 84.34–86.15%; MIC [15, 24]: 16 µg/mL; MIC [16]: 12.93 µM; MIC [16, 25]: 32 µg/mL; MIC ([17]; ATCC25923): 3.23 µM; MIC [17, 26]: 8 µg/mL; MIC [18, 27]: 4 μg/mL and 1.62 μM; MIC ([19]; CICC21630): 3.23 µM; MIC [19, 28]: 8 µg/mL; MIC ([20]; NCTC10350): 3.23 µM; MIC [20, 29]: 8 µg/mL
2 | CC(C)[C@H](N)C(=O)N[C@@H](Cc1ccccc1)C(=O)N[C@@H](C)C(=O)N[C@@H](Cc1c[nH]c2ccccc12)C(=O)N[C@@H](CC(N)=O)C(=O)N[C@H](C(=O)N[C@H]1CSSC[C@@H](C(=O)N[C@@H](Cc2c[nH]cn2)C(=O)N[C@@H](CCCNC(=N)N)C(=O)N[C@@H](CCCNC(=N)N)C(=O)N[C@@H](C)C(=O)N[C@@H](CC(N)=O)C(N)=O)NC(=O)[C@H](C(C)C)NC(=O)[C@H](CCCNC(=N)N)NC(=O)[C@H](C(C)C)NC(=O)[C@H](C(C)C)NC(=O)[C@H](CC(N)=O)NC(=O)[C@H](CCCNC(=N)N)NC(=O)[C@H](Cc2ccc(O)cc2)NC(=O)[C@H](C(C)C)NC1=O)C(C)C [V112N6NH2] (H-VFAWNVCVYRNVVRVCHRRAN-NH2; disulfide 7-16 (inferred)) | 6.25 | 16 | significantly less damaged | 6.25 to 12.51 | 1.56 to 3.13 | 0.78 to 6.25 | 16 | 6.25 | best ability to penetrate the outer membrane | 52.05 to 59.01 | 133.08 to 150.00 | 16.48 to 19.60 | 16.41 to 24.86 | 0 | 1.8 | 0 | 5.67 | 4.28 | 23.93 | 6.25 | survival rate of mice [21]: 66.67%; MIC [15, 24]: 16 µg/mL; MIC [16]: 12.51 µM; MIC [16, 25]: 32 µg/mL; MIC ([17]; ATCC25923): 12.5 µM; MIC [17, 26]: 32 µg/mL; MIC [18]: 6.25 µM; MIC [18, 27]: 16 µg/mL; MIC ([19]; CICC21630): 12.5 µM; MIC [19, 28]: 32 µg/mL; MIC ([20]; NCTC10350): 25.01 µM; MIC [20, 29]: 64 µg/mL
